{"source": "paper PMC5218480", "about": "(PLoS ONE, 2017)", "tested_on": "MV-4-11 cells", "assay": "Gene expression microarray analysis (Affymetrix PrimeView) and GSEA", "format": "cell-based, human", "design": "RFU PODN (11730768_x_at) / Fold change /veh PODN (11730768_x_at) / RFU LINC00158 (11744669_a_at) / Fold change /veh LINC00158 (11744669_a_at) / RFU DUSP10 (11751237_a_at) / Fold change /veh DUSP10 (11751237_a_at) / RFU ID3 (11757404_x_at) / Fold change /veh ID3 (11757404_x_at) / RFU PLEKHG5 (11737974_s_at) / Fold change /veh PLEKHG5 (11737974_s_at) / RFU LRRC4B (11730491_at) / Fold change /veh LRRC4B (11730491_at) / RFU GIMAP4 (11747438_a_at) / Fold change /veh GIMAP4 (11747438_a_at) / RFU KRT8 (11758183_x_at) / Fold change /veh KRT8 (11758183_x_at) / RFU CNN1 (11734310_a_at) / Fold change /veh CNN1 (11734310_a_at) / RFU VPS37D (11726825_at) / Fold change /veh VPS37D (11726825_at) / RFU C10orf10 (11716522_x_at) / Fold change /veh C10orf10 (11716522_x_at) / RFU KIR2DL2 /// KIR2DL4 /// KIR2DL5A /// KIR2DL5B /// KIR2DS1 /// KIR2DS2 /// KIR2DS3 /// KIR2DS4 /// KIR3DL3 /// KIR3DL3 /// KIR3DS1 (11738374_at) / Fold change /veh KIR2DL2 /// KIR2DL4 /// KIR2DL5A /// KIR2DL5B /// KIR2DS1 /// KIR2DS2 /// KIR2DS3 /// KIR2DS4 /// KIR3DL3 /// KIR3DL3 /// KIR3DS1 (11738374_at) / RFU C1QL1 (11718748_at) / Fold change /veh C1QL1 (11718748_at) / RFU TMPRSS4 (11747572_a_at) / Fold change /veh TMPRSS4 (11747572_a_at) / RFU HAMP (11756126_x_at) / Fold change /veh HAMP (11756126_x_at) / RFU RNFT2 (11725882_a_at) / Fold change /veh RNFT2 (11725882_a_at) / RFU NR4A2 (11747474_a_at) / Fold change /veh NR4A2 (11747474_a_at) / RFU ABCC12 (11746883_a_at) / Fold change /veh ABCC12 (11746883_a_at) / RFU TMEM136 (11760407_x_at) / Fold change /veh TMEM136 (11760407_x_at) / RFU CLDN22 /// WWC2 (11732394_at) / Fold change /veh CLDN22 /// WWC2 (11732394_at) / RFU HLA-DPB1 (11760878_x_at) / Fold change /veh HLA-DPB1 (11760878_x_at) / RFU SPINT1 (11716480_a_at) / Fold change /veh SPINT1 (11716480_a_at) / RFU GAP43 (11754022_s_at) / Fold change /veh GAP43 (11754022_s_at) / RFU A4GNT (11735810_at) / Fold change /veh A4GNT (11735810_at) / RFU PRB3 (11715151_x_at) / Fold change /veh PRB3 (11715151_x_at) / RFU TUBB4B (11761932_at) / Fold change /veh TUBB4B (11761932_at) / RFU CAPN14 (11732068_a_at) / Fold change /veh CAPN14 (11732068_a_at) / RFU TMCC2 (11721928_a_at) / Fold change /veh TMCC2 (11721928_a_at) / RFU IRGQ (11745062_a_at) / Fold change /veh IRGQ (11745062_a_at) / RFU FAM174B (11720279_a_at) / Fold change /veh FAM174B (11720279_a_at) / RFU TMPRSS4 (11748680_a_at) / Fold change /veh TMPRSS4 (11748680_a_at) / RFU FAM212B (11763350_a_at) / Fold change /veh FAM212B (11763350_a_at) / RFU PLEKHG5 (11743358_a_at) / Fold change /veh PLEKHG5 (11743358_a_at) / RFU ZSCAN30 (11745921_a_at) / Fold change /veh ZSCAN30 (11745921_a_at) / RFU CMKLR1 (11741424_a_at) / Fold change /veh CMKLR1 (11741424_a_at) / RFU LOC101060620 /// MAPK8IP1 (11723275_at) / Fold change /veh LOC101060620 /// MAPK8IP1 (11723275_at) / RFU SPTSSB (11747773_x_at) / Fold change /veh SPTSSB (11747773_x_at) / RFU PRSS12 (11739890_at) / Fold change /veh PRSS12 (11739890_at) / RFU BIN1 (11741810_x_at) / Fold change /veh BIN1 (11741810_x_at) / RFU WNT11 (11732464_a_at) / Fold change /veh WNT11 (11732464_a_at) / RFU C10orf10 (11716521_a_at) / Fold change /veh C10orf10 (11716521_a_at) / RFU C5orf56 (11738089_at) / Fold change /veh C5orf56 (11738089_at) / RFU CYB561 (11721691_x_at) / Fold change /veh CYB561 (11721691_x_at) / RFU ANKRD19P (11752326_a_at) / Fold change /veh ANKRD19P (11752326_a_at) / RFU OR2T12 /// OR2T33 /// OR2T8 (11738714_s_at) / Fold change /veh OR2T12 /// OR2T33 /// OR2T8 (11738714_s_at) / RFU VCAN (11748164_a_at) / Fold change /veh VCAN (11748164_a_at) / RFU JSRP1 (11732532_at) / Fold change /veh JSRP1 (11732532_at) / RFU KRTAP10-11 (11738290_x_at) / Fold change /veh KRTAP10-11 (11738290_x_at) / RFU MYO3A (11730013_a_at) / Fold change /veh MYO3A (11730013_a_at) / RFU EBF3 (11725865_a_at) / Fold change /veh EBF3 (11725865_a_at) / RFU CAMK2N1 (11719241_x_at) / Fold change /veh CAMK2N1 (11719241_x_at) / RFU C5orf56 (11738088_a_at) / Fold change /veh C5orf56 (11738088_a_at) / RFU OLFML3 (11715873_a_at) / Fold change /veh OLFML3 (11715873_a_at) / RFU LOC100653217 /// NTM (11731650_a_at) / Fold change /veh LOC100653217 /// NTM (11731650_a_at) / RFU MAPK11 (11762145_a_at) / Fold change /veh MAPK11 (11762145_a_at) / RFU FIZ1 (11724087_x_at) / Fold change /veh FIZ1 (11724087_x_at) / RFU OASL (11726364_x_at) / Fold change /veh OASL (11726364_x_at) / RFU SOX15 (11748057_x_at) / Fold change /veh SOX15 (11748057_x_at) / RFU CD79A (11719716_a_at) / Fold change /veh CD79A (11719716_a_at) / RFU HIST1H1D (11736915_at) / Fold change /veh HIST1H1D (11736915_at) / RFU CASKIN2 (11723855_a_at) / Fold change /veh CASKIN2 (11723855_a_at) / RFU LOC730098 (11760151_x_at) / Fold change /veh LOC730098 (11760151_x_at) / RFU OR4N2 (11742367_at) / Fold change /veh OR4N2 (11742367_at) / RFU PRRT2 (11749266_a_at) / Fold change /veh PRRT2 (11749266_a_at) / RFU SNX32 (11753110_a_at) / Fold change /veh SNX32 (11753110_a_at) / RFU CDHR5 (11726645_a_at) / Fold change /veh CDHR5 (11726645_a_at) / RFU RCAN1 (11760418_a_at) / Fold change /veh RCAN1 (11760418_a_at) / RFU FAM167A (11723789_a_at) / Fold change /veh FAM167A (11723789_a_at) / RFU FAM26E (11764081_at) / Fold change /veh FAM26E (11764081_at) / RFU ISYNA1 (11749810_s_at) / Fold change /veh ISYNA1 (11749810_s_at) / RFU ACY1 (11761880_at) / Fold change /veh ACY1 (11761880_at) / RFU 11764098_at / Fold change /veh 11764098_at / RFU SAMD14 (11745864_x_at) / Fold change /veh SAMD14 (11745864_x_at) / RFU NPB (11741838_a_at) / Fold change /veh NPB (11741838_a_at) / RFU TMPRSS6 (11731388_a_at) / Fold change /veh TMPRSS6 (11731388_a_at) / RFU KRTAP10-2 (11738614_at) / Fold change /veh KRTAP10-2 (11738614_at) / RFU ARHGAP8 /// PRR5-ARHGAP8 (11727945_x_at) / Fold change /veh ARHGAP8 /// PRR5-ARHGAP8 (11727945_x_at) / RFU KRTAP5-7 /// NADSYN1 (11734609_at) / Fold change /veh KRTAP5-7 /// NADSYN1 (11734609_at) / RFU RASL12 (11751679_a_at) / Fold change /veh RASL12 (11751679_a_at) / RFU CDKN2B (11736163_a_at) / Fold change /veh CDKN2B (11736163_a_at) / RFU PRF1 (11729649_at) / Fold change /veh PRF1 (11729649_at) / RFU, ZNF638 /// ZNF638-IT1 / Fold change vs veh, ZNF638 /// ZNF638-IT1 / RFU, PANK3 / Fold change vs veh, PANK3 / RFU, SH3YL1 / Fold change vs veh, SH3YL1 / RFU, ZEB2 / Fold change vs veh, ZEB2 / RFU, NRIP1 / Fold change vs veh, NRIP1 / RFU, PTTG1IP / Fold change vs veh, PTTG1IP / RFU, CAPN2 / Fold change vs veh, CAPN2 / RFU, MED14 / Fold change vs veh, MED14 / RFU, SNORA58 / Fold change vs veh, SNORA58 / RFU, C1orf63 / Fold change vs veh, C1orf63 / RFU, LRRFIP1 / Fold change vs veh, LRRFIP1 / RFU, NDUFAF7 / Fold change vs veh, NDUFAF7 / RFU, SLC12A2 / Fold change vs veh, SLC12A2 / RFU, IBTK / Fold change vs veh, IBTK / RFU, ESF1 / Fold change vs veh, ESF1 / Fold change vs veh, TMEM50B / RFU, TAOK1 / Fold change vs veh, TAOK1 / RFU, ACBD3 / Fold change vs veh, ACBD3 / RFU, TMA16 / Fold change vs veh, TMA16 / RFU, RWDD3 / Fold change vs veh, RWDD3 / RFU, BCAT1 / Fold change vs veh, BCAT1 / RFU, EDEM3 / Fold change vs veh, EDEM3 / RFU, TMEM33 / Fold change vs veh, TMEM33 / RFU, WDR75 / Fold change vs veh, WDR75 / RFU, AHCTF1 / Fold change vs veh, AHCTF1 / RFU, TFRC / Fold change vs veh, TFRC / RFU, ZDHHC17 / Fold change vs veh, ZDHHC17 / RFU, NOM1 / Fold change vs veh, NOM1 / RFU, ARL8B / Fold change vs veh, ARL8B / RFU, ZBTB11 / Fold change vs veh, ZBTB11 / RFU, TAMM41 / Fold change vs veh, TAMM41 / RFU, KIAA1704 /// LOC100996395 / Fold change vs veh, KIAA1704 /// LOC100996395 / RFU, ING1 / Fold change vs veh, ING1 / RFU, TRMT61B / Fold change vs veh, TRMT61B / RFU, FUBP3 / Fold change vs veh, FUBP3 / RFU, TP53 / Fold change vs veh, TP53 / RFU, TNKS2 / Fold change vs veh, TNKS2 / RFU, ZFP14 / Fold change vs veh, ZFP14 / RFU, ACTR2 / Fold change vs veh, ACTR2 / RFU, PPP3R1 / Fold change vs veh, PPP3R1 / RFU, PIK3R1 / Fold change vs veh, PIK3R1 / RFU, HNRNPA1 / Fold change vs veh, HNRNPA1 / RFU, RNF170 / Fold change vs veh, RNF170 / RFU, ZNF28 / Fold change vs veh, ZNF28 / RFU, RNGTT / Fold change vs veh, RNGTT / RFU, OGT / Fold change vs veh, OGT / RFU, BRD1 / Fold change vs veh, BRD1 / RFU, MARS / Fold change vs veh, MARS / RFU, ZNF655 / Fold change vs veh, ZNF655 / RFU, FAHD1 / Fold change vs veh, FAHD1 / RFU, BDP1 / Fold change vs veh, BDP1 / RFU, LRRCC1 / Fold change vs veh, LRRCC1 / RFU, ARID1A / Fold change vs veh, ARID1A / RFU, ZNF146 / Fold change vs veh, ZNF146 / RFU, ZNF330 / Fold change vs veh, ZNF330 / RFU, GPN3 / Fold change vs veh, GPN3 / RFU, C9orf123 / Fold change vs veh, C9orf123 / RFU, N4BP2L2 / Fold change vs veh, N4BP2L2 / RFU, ARFIP1 / Fold change vs veh, ARFIP1 / RFU, FAM179B / Fold change vs veh, FAM179B / RFU, BCL10 / Fold change vs veh, BCL10 / RFU, UHRF1BP1L / Fold change vs veh, UHRF1BP1L / RFU, BET1 / Fold change vs veh, BET1 / RFU, CNOT2 / Fold change vs veh, CNOT2 / RFU, ZNF268 / Fold change vs veh, ZNF268 / Fold change vs veh, ZNF507 / RFU, DGCR2 / Fold change vs veh, DGCR2 / RFU, WDSUB1 / Fold change vs veh, WDSUB1 / Fold change vs veh, HSP90B1 /// MIR3652 / RFU, ADSS / Fold change vs veh, ADSS / RFU, GK / Fold change vs veh, GK / RFU, ZNF148 / Fold change vs veh, ZNF148 / RFU, TAF9 / Fold change vs veh, TAF9 / RFU, SLC1A5 / Fold change vs veh, SLC1A5 / RFU, SLMO2 / Fold change vs veh, SLMO2 / RFU, ABCC4 / Fold change vs veh, ABCC4 / RFU, LOC101060439 /// RAP1B / Fold change vs veh, LOC101060439 /// RAP1B / RFU, RFX7 / Fold change vs veh, RFX7 / RFU, GTPBP10 / Fold change vs veh, GTPBP10 / RFU, CNEP1R1 / Fold change vs veh, CNEP1R1 / RFU, BIVM-ERCC5 /// ERCC5 / Fold change vs veh, BIVM-ERCC5 /// ERCC5 / RFU, ILF3 / Fold change vs veh, ILF3 / RFU 11762660_at / Fold change /veh 11762660_at / RFU VCAN (11757783_s_at) / Fold change /veh VCAN (11757783_s_at) / RFU DDX43 (11728927_at) / Fold change /veh DDX43 (11728927_at) / RFU KRT8 (11758188_x_at) / Fold change /veh KRT8 (11758188_x_at) / RFU NKD1 (11759106_at) / Fold change /veh NKD1 (11759106_at) / RFU SRD5A1 (11742802_a_at) / Fold change /veh SRD5A1 (11742802_a_at) / RFU TPSAB1 /// TPSB2 (11721975_s_at) / Fold change /veh TPSAB1 /// TPSB2 (11721975_s_at) / RFU GSTM3 (11746129_a_at) / Fold change /veh GSTM3 (11746129_a_at) / RFU IL23R (11737362_x_at) / Fold change /veh IL23R (11737362_x_at) / RFU TMEM51 (11727254_a_at) / Fold change /veh TMEM51 (11727254_a_at) / RFU PIWIL2 (11732686_x_at) / Fold change /veh PIWIL2 (11732686_x_at) / RFU ORM1 (11744905_x_at) / Fold change /veh ORM1 (11744905_x_at) / RFU CCDC152 (11743942_at) / Fold change /veh CCDC152 (11743942_at) / RFU ECM1 (11717891_a_at) / Fold change /veh ECM1 (11717891_a_at) / RFU IL23R (11748794_a_at) / Fold change /veh IL23R (11748794_a_at) / RFU TNFAIP8L3 (11732012_x_at) / Fold change /veh TNFAIP8L3 (11732012_x_at) / RFU MBOAT4 (11741988_at) / Fold change /veh MBOAT4 (11741988_at) / RFU 11764193_at / Fold change /veh 11764193_at / RFU TMEM53 (11763286_at) / Fold change /veh TMEM53 (11763286_at) / RFU MAGEB2 (11727129_at) / Fold change /veh MAGEB2 (11727129_at) / RFU TMEM200A (11744735_a_at) / Fold change /veh TMEM200A (11744735_a_at) / RFU CCDC152 (11751479_a_at) / Fold change /veh CCDC152 (11751479_a_at) / RFU FAM211A (11726209_a_at) / Fold change /veh FAM211A (11726209_a_at) / RFU RGS16 (11746705_a_at) / Fold change /veh RGS16 (11746705_a_at) / RFU VCAN (11755009_s_at) / Fold change /veh VCAN (11755009_s_at) / RFU RHOB (11743442_s_at) / Fold change /veh RHOB (11743442_s_at) / RFU RGS16 (11720943_a_at) / Fold change /veh RGS16 (11720943_a_at) / RFU RGS16 (11720944_at) / Fold change /veh RGS16 (11720944_at) / RFU, VPS4B / Fold change vs veh, VPS4B / RFU, CREB1 / Fold change vs veh, CREB1 / RFU, DNAJC13 / Fold change vs veh, DNAJC13 / RFU, GNAQ / Fold change vs veh, GNAQ / RFU, CDK5R1 / Fold change vs veh, CDK5R1 / RFU, ZRANB3 / Fold change vs veh, ZRANB3 / RFU, CUL4A / Fold change vs veh, CUL4A / RFU, CCNY / Fold change vs veh, CCNY / RFU, UFL1 / Fold change vs veh, UFL1 / RFU, COG3 / Fold change vs veh, COG3 / RFU, DIAPH2 / Fold change vs veh, DIAPH2 / RFU, SKA2 / Fold change vs veh, SKA2 / RFU, AFF3 / Fold change vs veh, AFF3 / RFU, LMF1 / Fold change vs veh, LMF1 / RFU, IPO11 / Fold change vs veh, IPO11 / RFU, DFFB / Fold change vs veh, DFFB / RFU, FOXP1 / Fold change vs veh, FOXP1 / RFU, CARD8 / Fold change vs veh, CARD8 / RFU, STRN3 / Fold change vs veh, STRN3 / RFU, ADK / Fold change vs veh, ADK / RFU, RASSF2 / Fold change vs veh, RASSF2 / RFU, WIPF1 / Fold change vs veh, WIPF1 / RFU, LARP1B / Fold change vs veh, LARP1B / RFU, RASA1 / Fold change vs veh, RASA1 / RFU, RB1 / Fold change vs veh, RB1 / RFU, PPFIA1 / Fold change vs veh, PPFIA1 / RFU, MAT2A / Fold change vs veh, MAT2A / RFU, CCT5 / Fold change vs veh, CCT5 / RFU, WDR92 / Fold change vs veh, WDR92 / RFU, CUX1 / Fold change vs veh, CUX1 / RFU, TTC7A / Fold change vs veh, TTC7A / RFU, TMEM135 / Fold change vs veh, TMEM135 / RFU, DEPTOR / Fold change vs veh, DEPTOR / RFU, CPM / Fold change vs veh, CPM / RFU, DNAJB6 / Fold change vs veh, DNAJB6 / RFU, CACNA2D3 / Fold change vs veh, CACNA2D3 / RFU, DTX4 / Fold change vs veh, DTX4 / RFU, TFCP2 / Fold change vs veh, TFCP2 / RFU, GMCL1 /// GMCL1P1 / Fold change vs veh, GMCL1 /// GMCL1P1 / RFU, AEBP2 / Fold change vs veh, AEBP2 / RFU, SNHG1 /// SNORD22 /// SNORD25 /// SNORD26 /// SNORD27 /// SNORD28 /// SNORD29 /// SNORD31 / Fold change vs veh, SNHG1 /// SNORD22 /// SNORD25 /// SNORD26 /// SNORD27 /// SNORD28 /// SNORD29 /// SNORD31 / Fold change (Aza/veh), C12orf56 (ProbeSet 11735607_a_at) / Fold change (ACY-1035/veh), C12orf56 (ProbeSet 11735607_a_at) / Fold change (Aza/veh), FGFR1OP (ProbeSet 11751329_s_at) / Fold change (ACY-1035/veh), FGFR1OP (ProbeSet 11751329_s_at) / Fold change (Aza/veh), VPS36 (ProbeSet 11739960_a_at) / Fold change (ACY-1035/veh), VPS36 (ProbeSet 11739960_a_at) / RFU SYPL1 (11715823_x_at) / Fold change /veh SYPL1 (11715823_x_at) / RFU IGFBP7 (11715501_s_at) / Fold change /veh IGFBP7 (11715501_s_at) / RFU REEP3 (11722064_at) / Fold change /veh REEP3 (11722064_at) / RFU IGLL1 (11728026_x_at) / Fold change /veh IGLL1 (11728026_x_at): dose or concentration left out as unconfirmed", "details": "ProbeSet 11759095_at; LIST D", "data": [{"smiles": "Nc1ccc(-c2cccs2)cc1NC(=O)c1ccc2c(c1)cc(C1CC1)n2CCN1CCOCC1", "note": "[ACY-1035]", "values": [{"measurement": "RFU, GNAQ", "value": 901.39, "unit": "RFU"}]}]}
